# Tested on: AMPK
# Assay: AMPK activity assay at cell level (western blot of p-AMPKα and p-ACC in MEFs)
# Assay type: cell-based, mouse
# Details: MEF cells, compound 10 nM, 2 h; multiple of the ratio relative to positive control AICAR (3 mM); band brightness by Image J
# Method: The ability of compounds to activate AMPK in mouse embryonic fibroblasts (MEFs) was determined, which could be specifically carried out by detecting the phosphorylation level (p-AMPKα) of threonine at the 172nd position of AMPK and the phosphorylation level (p-ACC) of serine at the 79th position of the susbtrate ACC1/ACC2 of AMPK (FIG. 1 and Table I) by western blot.
# The specific method was as follows: • (1) MEFs with loxP insertion sequences or of wild-type were plated in a 6-well plate and cultured in DMEM containing 10% serum. If a gene needed to be knocked out at this time, when the density of the corresponding MEFs with loxP insertion sequences reached about 30%, an adenovirus capable of expressing cre should be added to the culture well followed by further culture for more than 24 h; • (2) When the cell density was close to 90%, the cells were provided with fresh DMEM, at the same time, a compound (final concentration 10 nM) was added to the cells, followed by culture for 2 h, with an equal volume of DMSO as the negative control, and the cells treated with the addition of AICAR (3 mM) as the positive control; • (3) After sucking up the culture solution, the cells were lysed with 200 μL of a cell lysate (its formulation was given below), then the cells were scraped from the culture dish, ultrasonicated, and subjected to low temperature centrifugation at 20000 g for 10 min; • (4) The supernatant and an equal volume of 2*SDS solution (its formulation was given below) were mixed, and subjected to SDS-PAGE in a concentration of 8%, then the protein was transferred to PVDF membrane; each PVDF membrane was blocked with 25 mL of skim milk for 1 h, and then rinsed with TBST buffer (its formulation was given below) 3 times for 10 min each time; • (5) AMPKα subunit primary antibody (Cell Signaling Technology, #2532), primary antibody of phosphothreonine at the 172nd position of AMPK (Cell Signaling Technology, #2535), ACC primary antibody (Cell Signaling Technology, #3662), or primary antibody of phosphoserine at the 79th position of ACC (Cell Signaling Technology, #3661) was diluted in a ratio of 1:1000 with a primary antibody dilution (its formulation was given below), reacted with the PVDF membrane at room temperature for 12 h, and then rinsed 3 times with TBST buffer; • (6) A 1:1000 dilution of HRP-conjugated goat anti-rabbit secondary antibody (Jackson ImmunoResearch, 111-035-003) was added, reacted at room temperature for 1 h, and then rinsed 3 times with TBST buffer; • (7) The PVDF membrane was dried, reacted in an ECL mixture (WesternBright ECL HRP substrate, Advansta) and subjected to exposure with medical X-ray, developed, finally rinsed, dried, and then scanned to obtain data related to AMPK activation.
# The formulations of reagents used were: • Cell lysate: 20 mM Tris-base, pH 7.5, 150 mM NaCl, 1 mM EDTA, 1 mM EGTA, 2.5 mM Sodium pyrophosphate, 1 mM β-glycerolphosphate, 1% Triton X-100 (v/v); • 2*SDS solution: 20% Glycerol (v/v), 4% SDS (m/v), 10% β-mecaptoethanol (v/v), 0.01% Bromophenol blue (m/v); • TBST buffer: 4.84% Tris-base (m/v), 8% NaCl (m/v), 0.1% Tween-20 (v/v); • Primary antibody dilution: TBST buffer containing 5% BSA (v/v).
SMILES,"Degree of AMPK activation, p-ACC/ACC","Degree of AMPK activation, p-AMPKα/AMPK"
CC(C)c1n(CCCCCCCCCCCC(F)(F)C(F)(F)C(F)(F)C(F)(F)F)cc[n+]1Cc1c(Cl)cccc1Cl.[Cl-] [IB-24],1.60,0.64
Br.Cc1n(CCCCCCCCCCCCCCCCF)cc[n+]1Cc1c(Cl)cccc1Cl [IA-2],0.73,1.00
Cc1n(CCCCCCCCCCCC(F)(F)C(F)(F)C(F)(F)C(F)(F)F)cc[n+]1Cc1c(Cl)cccc1Cl.[Br-] [IB-18],0.65,1.45
COc1ccc(F)cc1C[n+]1ccn(CCCCCCCCCCCC(F)(F)C(F)(F)C(F)(F)C(F)(F)C(F)(F)F)c1C1CC1.[Br-] [IB-46],1.73,0.57
Cc1n(CCCCCCCCCCCC(F)(F)C(F)(F)C(F)(F)C(F)(F)F)cc[n+]1Cc1c(F)cccc1Cl.[Cl-] [IB-17],0.72,1.42
Cl.Fc1cccc(Cl)c1C[n+]1ccn(CCCCCCCCCCCC(F)(F)C(F)(F)C(F)(F)C(F)(F)F)c1 [IB-14],0.50,1.57
COc1ccc(F)cc1C[n+]1ccn(CCCCCCCCCCCC(F)(F)C(F)(F)C(F)(F)C(F)(F)C(F)(F)C(F)(F)F)c1C.[Br-] [IB-52],0.98,0.83
COc1ccc(F)cc1C[n+]1ccn(CCCCCCCCCCCC(F)(F)C(F)(F)C(F)(F)F)c1.[Br-] [IB-3],0.64,1.70
Fc1cccc(Cl)c1C[n+]1ccn(CCCCCCCCCCCC(F)(F)C(F)(F)C(F)(F)F)c1C1CC1.[Cl-] [IB-11],0.41,1.11
Cl.FC(F)(F)C(F)(F)C(F)(F)CCCCCCCCCCCn1cc[n+](Cc2c(Cl)cccc2Cl)c1C1CC1 [IB-10],0.35,1.94
COc1ccc(F)cc1C[n+]1ccn(CCCCCCCCCCCC(F)(F)C(F)(F)C(F)(F)C(F)(F)F)c1C.[Br-] [IB-20],0.82,1.22
Cc1n(CCCCCCCCCCCC(F)(F)C(F)(F)C(F)(F)C(F)(F)C(F)(F)F)cc[n+]1Cc1c(Cl)cccc1Cl.[Br-] [IB-35],1.15,1.02
Cc1n(CCCCCCCCCCCC(F)(F)C(F)(F)C(F)(F)C(F)(F)C(F)(F)F)cc[n+]1Cc1c(F)cccc1Cl.[I-] [IB-39],1.51,1.50
Cc1n(CCCCCCCCCCCC(F)(F)C(F)(F)C(F)(F)C(F)(F)F)cc[n+]1Cc1c(Cl)cccc1Cl.[I-] [IB-21],1.73,0.35
Cc1n(CCCCCCCCCCCC(F)(F)C(F)(F)C(F)(F)F)cc[n+]1Cc1c(F)cccc1Cl.[Cl-] [IB-5],0.70,1.85
CC(C)c1n(CCCCCCCCCCCC(F)(F)C(F)(F)C(F)(F)F)cc[n+]1Cc1c(Cl)cccc1Cl.[Cl-] [IB-7],0.87,1.93
COc1ccc(F)cc1C[n+]1ccn(CCCCCCCCCCCC(F)(F)C(F)(F)C(F)(F)C(F)(F)F)c1C(C)C.[Br-] [IB-26],1.04,0.94
COc1ccc(F)cc1C[n+]1ccn(CCCCCCCCCCCC(F)(F)C(F)(F)C(F)(F)F)c1C(C)C.[Br-] [IB-9],0.27,1.07
Br.COc1ccc(F)cc1C[n+]1ccn(CCCCCCCCCCCC(F)(F)C(F)(F)C(F)(F)C(F)(F)C(F)(F)C(F)(F)F)c1C(C)C [IB-55],1.98,0.87

SMILES,"Degree of AMPK activation, p-ACC/ACC","Degree of AMPK activation, p-AMPKα/AMPK"
CC(C)c1n(CCCCCCCCCCCC(F)(F)C(F)(F)C(F)(F)C(F)(F)C(F)(F)F)cc[n+]1Cc1c(F)cccc1Cl.[Cl-] [IB-42],1.50,1.03
COc1ccc(F)cc1C[n+]1ccn(CCCCCCCCCCCC(F)(F)C(F)(F)C(F)(F)C(F)(F)F)c1C1CC1.[Br-] [IB-29],0.81,0.76
CC(C)c1n(CCCCCCCCCCCC(F)(F)C(F)(F)C(F)(F)C(F)(F)C(F)(F)C(F)(F)F)cc[n+]1Cc1c(Cl)cccc1Cl.Cl [IB-53],1.23,0.76
Cc1n(CCCCCCCCCCCCCCCCF)cc[n+]1Cc1c(Cl)cccc1Cl.[I-] [IA-3],0.83,0.69
Cc1n(CCCCCCCCCCCC(F)(F)C(F)(F)C(F)(F)C(F)(F)F)cc[n+]1Cc1c(F)cccc1Cl.[I-] [IB-22],1.08,0.44
Cc1n(CCCCCCCCCCCC(F)(F)C(F)(F)C(F)(F)C(F)(F)C(F)(F)F)cc[n+]1Cc1c(Cl)cccc1Cl [IB-60],1.01,0.94
Cl.FC(F)(F)C(F)(F)C(F)(F)C(F)(F)CCCCCCCCCCCn1cc[n+](Cc2c(Cl)cccc2Cl)c1 [IB-13],0.57,1.31
FC(F)(F)C(F)(F)C(F)(F)CCCCCCCCCCCn1cc[n+](Cc2c(Cl)cccc2Cl)c1.[Cl-] [IB-1],0.71,0.99
Cl.FC(F)(F)C(F)(F)C(F)(F)C(F)(F)C(F)(F)C(F)(F)CCCCCCCCCCCn1cc[n+](Cc2c(Cl)cccc2Cl)c1C1CC1 [IB-56],0.99,0.85
Cc1n(CCCCCCCCCCCC(F)(F)C(F)(F)C(F)(F)C(F)(F)C(F)(F)F)cc[n+]1Cc1c(Cl)cccc1Cl [IB-59],1.04,0.98
FC(F)(F)C(F)(F)C(F)(F)C(F)(F)CCCCCCCCCCCn1cc[n+](Cc2c(Cl)cccc2Cl)c1C1CC1.[Cl-] [IB-27],1.06,0.95
CC(C)c1n(CCCCCCCCCCCC(F)(F)C(F)(F)C(F)(F)F)cc[n+]1Cc1c(F)cccc1Cl.[Cl-] [IB-8],0.90,1.23
Br.COc1ccc(F)cc1C[n+]1ccn(CCCCCCCCCCCC(F)(F)C(F)(F)C(F)(F)F)c1C1CC1 [IB-12],0.50,1.18
Fc1cccc(Cl)c1C[n+]1ccn(CCCCCCCCCCCC(F)(F)C(F)(F)C(F)(F)C(F)(F)C(F)(F)F)c1C1CC1.[Cl-] [IB-45],2.22,0.54
Fc1cccc(Cl)c1C[n+]1ccn(CCCCCCCCCCCC(F)(F)C(F)(F)C(F)(F)F)c1.[Cl-] [IB-2],0.82,1.45
CC(C)c1n(CCCCCCCCCCCC(F)(F)C(F)(F)C(F)(F)C(F)(F)F)cc[n+]1Cc1c(F)cccc1Cl.[Cl-] [IB-25],1.10,0.58
COc1ccc(F)cc1C[n+]1ccn(CCCCCCCCCCCC(F)(F)C(F)(F)C(F)(F)C(F)(F)C(F)(F)F)c1C.[I-] [IB-40],1.65,1.06
COc1ccc(F)cc1C[n+]1ccn(CCCCCCCCCCCC(F)(F)C(F)(F)C(F)(F)C(F)(F)F)c1C.[I-] [IB-23],1.50,0.49
